The values below come from PubChem BioAssay (NCI).

As a reminder, the GI50 is the concentration at which growth is held to half of that of the control. One may read the TGI as the concentration at which net growth stops. A low value points to more potent growth arrest.

Test systems include M14 melanoma; NCI-H460 lung; CAKI-1 renal; BT-549 breast; SK-MEL-2 melanoma; UO-31 renal; SK-MEL-28 melanoma; SR leukemia; ACHN renal; HT29 colon.
What all share (experiment): DTP human tumour cell line panel, 48 h

Values joined by “and” are separate entries in the source; they are usually repeats but may differ in a detail not shown here. Equal entries are not always repeated.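 96-well plates; 48 h exposure; 5 concentrations. Endpoints by linear interpolation between flanking doses. Not reached: highest tested concentration assigned. GI50: concentration for 50% inhibition of growth. TGI: total growth inhibition.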

Take `Cc1cc2c(cc1Cl)SC(=Nc1ccc(Cl)cc1)N(S(=O)(=O)c1ccc(Br)s1)S2(=O)=O`: the GI50 with M14 melanoma is 21.9 µM; in the experiment on NCI-H460 lung, 35.2 µM; in the experiment on CAKI-1 renal, 19500 nM; in the experiment with BT-549 breast it was 19.2 µM; in the experiment with SK-MEL-2 melanoma, 35.3 µM; in the experiment on UO-31 renal, 24.6 µM. Moreover, the GI50 with SK-MEL-28 melanoma was 24.6 µM; in the experiment with SR leukemia, 5.11 µM; in the experiment with ACHN renal it was 9.05 µM. Besides, the TGI in the experiment on M14 melanoma is 56.5 µM; in the experiment on NCI-H460 lung, over 100 µM; with CAKI-1 renal, 42.2 µM; with BT-549 breast, 48.8 µM; in the experiment with SK-MEL-2 melanoma it was over 100 µM; in the experiment on UO-31 renal, 61 µM. The values for the TGI with SK-MEL-28 melanoma, in the experiment on SR leukemia and in the experiment with ACHN renal were over 100 µM, over 100 µM and 21.1 µM, respectively.

With `CC[C@@H]1C(=O)N(C)c2cnc(Nc3ccc(C(=O)NC4CCC(N5CCN(CC6CC6)CC5)CC4)cc3OC)nc2N1C(C)C` (some centres not stated), the GI50 in the experiment with M14 melanoma is 0.00963 µM and 0.0349 µM; in the experiment on NCI-H460 lung, 0.0123 µM and 0.0297 µM; in the experiment on CAKI-1 renal, 109 nM and 390 nM; in the experiment with BT-549 breast it was 0.078 µM and 0.0387 µM; with SK-MEL-2 melanoma, 0.0221 µM and 0.0351 µM; in the experiment on HT29 colon, 0.00436 µM and < 0.01 µM. Moreover, the GI50 with UO-31 renal is 0.234 µM and 0.345 µM; in the experiment with SK-MEL-28 melanoma, 0.0737 µM and 0.0669 µM; in the experiment on SR leukemia, 0.0134 µM and 0.0123 µM; with ACHN renal, 0.305 µM and 0.222 µM. Further, the TGI with M14 melanoma was > 3.81 µM and 2.39 µM; with NCI-H460 lung it was > 10 µM and 1.86 µM; with CAKI-1 renal, > 10 µM and 10.7 µM; in the experiment on BT-549 breast it was > 10 µM and 6.44 µM; in the experiment on SK-MEL-2 melanoma, 1.97 µM and 2.27 µM; with HT29 colon it was 2.07 µM and 1.35 µM. Further, the concentration for total growth inhibition (TGI) with UO-31 renal is > 10 µM and 7.53 µM; with SK-MEL-28 melanoma, 2.64 µM and 3.16 µM; in the experiment on SR leukemia, 1.32 µM and 1.51 µM; in the experiment on ACHN renal it was > 10 µM and 13.6 µM.

With `CN(C)CCN1C(=O)c2cccc3cc(N)cc(c23)C1=O`, the total growth inhibition concentration (TGI) in the experiment with M14 melanoma was 16.7 µM and 8.69 µM; in the experiment on NCI-H460 lung, 5.34 µM and 5.95 µM; with CAKI-1 renal it was 11.1 µM and 7.59 µM; with BT-549 breast, 28.3 µM and 13.1 µM; in the experiment on SK-MEL-2 melanoma it was 13 µM and 9.4 µM; in the experiment with HT29 colon, 12 µM and 14.1 µM. Moreover, the total growth inhibition concentration (TGI) in the experiment with UO-31 renal was 43.1 µM and 12.8 µM; in the experiment on SK-MEL-28 melanoma it was 27.8 µM and 19.6 µM; in the experiment with SR leukemia, > 40.8 µM and 11 µM; in the experiment with ACHN renal, 4.47 µM and 3.63 µM. For the same compound, the GI50 was 1770 nM and 1110 nM with CAKI-1 renal; 11.2 µM in the experiment on BT-549 breast; 3.73 µM in the experiment on SK-MEL-2 melanoma; 2.75 µM with HT29 colon; 2.09 µM in the experiment on UO-31 renal; 3.38 µM and 0.824 µM with SR leukemia. In the experiment on ACHN renal, the GI50 is 1.33 µM.

As to `COc1cccc(C2CC(C)(O)Oc3cc4c(cc32)OCO4)c1` (configuration not stated), the total growth inhibition concentration (TGI) with M14 melanoma is over 100 µM; in the experiment on NCI-H460 lung, 53.6 µM; in the experiment on CAKI-1 renal it was over 100 µM; with BT-549 breast, over 100 µM; in the experiment on SK-MEL-2 melanoma, 43.6 µM; in the experiment on HT29 colon it was 28.8 µM. Moreover, the concentration for total growth inhibition (TGI) was 72.2 µM in the experiment with UO-31 renal, over 100 µM with SK-MEL-28 melanoma, 23.8 µM in the experiment with SR leukemia and over 100 µM in the experiment on ACHN renal.

Take `Oc1ccc(CCNc2nc3ccccc3c3[nH]c4ccccc4c23)cc1O`: the GI50 in the experiment with M14 melanoma is 2.62 µM; in the experiment with NCI-H460 lung, 2.17 µM; in the experiment on CAKI-1 renal, 11000 nM; with BT-549 breast, 9.27 µM; in the experiment on SK-MEL-2 melanoma, 1.73 µM; with HT29 colon it was 3.2 µM. Moreover, the GI50 in the experiment on SK-MEL-28 melanoma was 5.85 µM; in the experiment on SR leukemia it was 1.92 µM; with ACHN renal it was 2.14 µM. Moreover, the TGI is 7.28 µM in the experiment with M14 melanoma; 5.54 µM in the experiment with NCI-H460 lung; 22.9 µM with CAKI-1 renal; 21.3 µM in the experiment with BT-549 breast; 3.59 µM in the experiment on SK-MEL-2 melanoma; 11.1 µM in the experiment with HT29 colon. In addition, the TGI with SK-MEL-28 melanoma was found to be 18.3 µM; in the experiment on SR leukemia, 5.74 µM; in the experiment on ACHN renal, 5.76 µM.

For the compound `N#Cc1cnc2ccc(NCc3cnc[nH]3)cc2c1Nc1ccc(F)c(Cl)c1`, the GI50 is 14.3 µM with M14 melanoma; 10.3 µM in the experiment with NCI-H460 lung; over 100 µM with BT-549 breast; 6.34 µM in the experiment with SK-MEL-2 melanoma; over 100 µM in the experiment with HT29 colon; 3.52 µM in the experiment on UO-31 renal. Besides, the GI50 in the experiment with SK-MEL-28 melanoma is 17.3 µM; with SR leukemia it was 5.65 µM; in the experiment on ACHN renal, 2.88 µM. The total growth inhibition concentration (TGI) with M14 melanoma, with NCI-H460 lung, with BT-549 breast, in the experiment on SK-MEL-2 melanoma, in the experiment on HT29 colon and with UO-31 renal was over 100 µM in each case. Further, the values for the TGI in the experiment on SK-MEL-28 melanoma, in the experiment on SR leukemia and in the experiment with ACHN renal were 58.4 µM, over 100 µM and over 100 µM, respectively.

For the compound `CCN(Cc1ccccc1)c1ccc(/C=C2\COc3ccccc3C2=O)cc1`, the GI50 in the experiment on M14 melanoma was 330 µM; with NCI-H460 lung, over 1000 µM; with BT-549 breast it was 340 µM; in the experiment on SK-MEL-2 melanoma it was over 1000 µM; with HT29 colon, 135 µM; with UO-31 renal, 286 µM. Further, the GI50 was over 1000 µM with SK-MEL-28 melanoma, 54 µM in the experiment with SR leukemia and over 1000 µM in the experiment with ACHN renal. Also, the TGI in the experiment with M14 melanoma, in the experiment with NCI-H460 lung, with BT-549 breast, with SK-MEL-2 melanoma, in the experiment with HT29 colon and in the experiment on UO-31 renal was over 1000 µM in each case. Besides, the TGI with SK-MEL-28 melanoma, in the experiment on SR leukemia and in the experiment on ACHN renal was over 1000 µM throughout.

`CCN(CC)CCN1C(=O)C2C3C(C)=CC(OC(C)=O)(CC3C)C2C1=O` (configuration not stated): the GI50 in the experiment with M14 melanoma was over 100 µM; in the experiment with CAKI-1 renal it was over 100000 nM; with BT-549 breast, over 100 µM; in the experiment on SK-MEL-2 melanoma it was over 100 µM; in the experiment with HT29 colon, over 100 µM; in the experiment on UO-31 renal, over 100 µM. The GI50 in the experiment on SR leukemia and in the experiment with ACHN renal was over 100 µM in each case. Besides, the TGI with M14 melanoma, in the experiment on CAKI-1 renal, with BT-549 breast, with SK-MEL-2 melanoma, in the experiment on HT29 colon and in the experiment with UO-31 renal was over 100 µM throughout. Further, the total growth inhibition concentration (TGI) in the experiment on SR leukemia and in the experiment with ACHN renal was over 100 µM each time.

Consider `COC1C(OC(=O)/C=C/C=C/C=C/C=C/C(=O)O)CCC2(CO2)C1C1(C)OC1CC=C(C)C` (configuration not stated), for which the TGI is 69.8 µM with M14 melanoma; over 100 µM with CAKI-1 renal; over 100 µM in the experiment with BT-549 breast; over 85.3 µM with SK-MEL-2 melanoma; over 82.2 µM in the experiment with UO-31 renal; over 100 µM in the experiment with SK-MEL-28 melanoma. For the same compound, the total growth inhibition concentration (TGI) in the experiment with SR leukemia was determined as 67.6 µM; in the experiment with ACHN renal, 49 µM. Also, the GI50 in the experiment with CAKI-1 renal is 414 nM; in the experiment on BT-549 breast it was 0.268 µM; in the experiment on HT29 colon, 0.181 µM; in the experiment on SK-MEL-28 melanoma it was 0.442 µM; in the experiment on SR leukemia, 0.22 µM; with ACHN renal it was 0.373 µM.

Take `COc1ccc(-c2nn3ncccc3c2-c2ccnc(Nc3ccc(F)c(F)c3)n2)cc1`: the GI50 with M14 melanoma is 9.61 µM; in the experiment on NCI-H460 lung it was 7.4 µM; in the experiment on CAKI-1 renal, 7650 nM; in the experiment with BT-549 breast, 15 µM; in the experiment with HT29 colon it was 5.43 µM; with UO-31 renal, 5.8 µM. Further, the GI50 in the experiment on SK-MEL-28 melanoma was 17.8 µM; with SR leukemia, 18.7 µM; in the experiment on ACHN renal, 10.4 µM. For the same compound, the TGI in the experiment with M14 melanoma was over 25 µM; in the experiment with NCI-H460 lung, over 25 µM; with CAKI-1 renal, over 23.4 µM; in the experiment on BT-549 breast, over 25 µM; in the experiment on HT29 colon, over 25 µM; in the experiment on UO-31 renal it was over 20.9 µM. The TGI in the experiment on SK-MEL-28 melanoma, with SR leukemia and in the experiment on ACHN renal was over 25 µM throughout.

With `O=c1oc2ccccc2cc1P(=O)(O)O`, the total growth inhibition concentration (TGI) with M14 melanoma, in the experiment with NCI-H460 lung, in the experiment on CAKI-1 renal, with BT-549 breast, with SK-MEL-2 melanoma and in the experiment with HT29 colon was over 100 µM throughout. Moreover, the TGI with SK-MEL-28 melanoma, in the experiment on SR leukemia and in the experiment on ACHN renal was over 100 µM in each case.

In the case of `Cc1cc[c]([Sb]2[O]C(CO)C(C(O)C(O)C(=O)O)[O]2)cc1` (configuration not stated), the GI50 in the experiment on M14 melanoma was 90 µM; in the experiment with CAKI-1 renal it was over 100000 nM; with BT-549 breast it was over 100 µM; in the experiment on SK-MEL-2 melanoma, 21.4 µM; with HT29 colon, 46.4 µM; with UO-31 renal it was over 100 µM. In addition, the values for the GI50 with SK-MEL-28 melanoma, in the experiment on SR leukemia and in the experiment with ACHN renal were 39.6 µM, 47.2 µM and over 100 µM, respectively. Further, the TGI is over 100 µM in the experiment with M14 melanoma; over 100 µM in the experiment with CAKI-1 renal; over 100 µM in the experiment on BT-549 breast; 45.5 µM in the experiment with SK-MEL-2 melanoma; over 100 µM with HT29 colon; over 100 µM with UO-31 renal. The TGI with SK-MEL-28 melanoma, in the experiment on SR leukemia and with ACHN renal was over 100 µM throughout.

Regarding `CCCCCCCCCCCC1=NC(C)(C)CN1C(C)C`, the GI50 with M14 melanoma was 1.89 µM; in the experiment with NCI-H460 lung, 3.22 µM; with CAKI-1 renal, 2680 nM; with BT-549 breast it was 9.22 µM; in the experiment with SK-MEL-2 melanoma it was 3.2 µM; with UO-31 renal, 2.75 µM. Besides, the GI50 with SK-MEL-28 melanoma was 1.78 µM; in the experiment on SR leukemia it was 1.71 µM; in the experiment with ACHN renal it was 4.15 µM. Moreover, the TGI in the experiment on M14 melanoma amounted to 3.57 µM; in the experiment on NCI-H460 lung it was 9.28 µM; in the experiment on CAKI-1 renal, 14 µM; with BT-549 breast, 23.4 µM; in the experiment with SK-MEL-2 melanoma, 10 µM; with UO-31 renal it was 12.5 µM. In addition, the TGI with SK-MEL-28 melanoma is 3.37 µM; with SR leukemia it was 4.32 µM; with ACHN renal, 15.7 µM.
